The values below come from patent US20080306284A1, “Lipase Inhibitors” (priority 2004, published 2008).

For one data set, the target named is T1, porcine pancreatic lipase (Sus scrofa, UniProt P00591).
T1 construct: purchased Sigma
T1 sequence (P00591 1-450): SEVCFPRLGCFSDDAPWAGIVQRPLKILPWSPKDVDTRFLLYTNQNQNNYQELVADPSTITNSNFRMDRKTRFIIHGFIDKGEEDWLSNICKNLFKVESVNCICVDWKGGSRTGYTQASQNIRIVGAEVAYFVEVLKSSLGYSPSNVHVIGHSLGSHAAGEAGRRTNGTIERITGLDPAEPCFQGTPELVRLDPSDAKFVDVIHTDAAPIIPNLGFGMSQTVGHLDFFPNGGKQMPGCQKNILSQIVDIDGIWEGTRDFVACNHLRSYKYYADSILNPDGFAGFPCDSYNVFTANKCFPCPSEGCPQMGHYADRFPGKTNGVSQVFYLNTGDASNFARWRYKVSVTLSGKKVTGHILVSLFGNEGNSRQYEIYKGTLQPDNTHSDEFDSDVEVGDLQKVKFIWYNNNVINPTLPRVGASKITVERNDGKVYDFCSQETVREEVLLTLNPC
As to the kind of experiment: Lipase inhibitory activity assay (4-MUO substrate, fluorescence). Conditions: method of Example 1. In kind it is biochemical. The method, then:
A lipase activity assay was performed by using the oleate ester of fluorescent 4-methylumbelliferone (4-MUO) as a substrate to measure the fluorescence of 4-methylumbelliferone produced by reaction.
The buffer used for the assay was 13 mM Tris-HCl (pH 8.0) containing 150 mM NaCl, 1.36 mM CaCl2. The enzyme assay was performed using a 0.1 M solution of the substrate 4-MUO (Sigma) in DMSO diluted 1:1000 in said buffer and a solution of porcine pancreatic lipase (Sigma) prepared at 400 U/ml also in said buffer.
An enzymatic reaction was started by adding 25 μl of the lipase/buffer solution after 50 μl of the 4-MUO/buffer solution and 25 μl of distilled water (or an aqueous solution of each sample) were added and mixed in a 96-well microplate at 25° C. After the reaction was performed for 30 minutes, the reaction was stopped by adding 100 μl of a 0.1 M citrate buffer (pH 4.2) and the fluorescence of 4-methylumbelliferone produced by the reaction (excitation 355 nm, emission 460 nm) was measured using a fluorescence plate reader (Fluoroskan Asent CF from Labsystems).
The inhibitory activity of each test sample was determined as IC50(μM), i.e. the amount of the sample giving 50% inhibition of the activity of the control (distilled water).
On to “(−)-epigallocatechin 3-O-gallate [(−)-epigallocatechin 3-O-gallate (4), reference compound]”, for which the “lipase inhibitory activity (in words)” value is “strongest activity among the major catechins”.

Still in this data set, the particulars now being: porcine pancreatic lipase, 4-MUO substrate, 25° C., 30 minutes, pH 8.0.
Regarding `Oc1cc(O)c2c(c1)OC(c1ccc(O)c(O)c1)C(O)C2` (single isomer, unassigned; (+)) [(+)-catechin (5), (+)-catechin, reference compound], the 50% inhibitory concentration (IC50) (as a rule, the concentration at which inhibition is half-maximal) is greater than 690000 nM.

On to `Oc1cc(O)c2c(c1)O[C@H](c1ccc(O)c(O)c1)[C@@H](O)[C@@H]2c1c(O)cc(O)c2c1O[C@H](c1cc(O)c(O)c(O)c1)[C@H](O)C2` [(+)-catechin (4α − 8) (−)-epigallocatechin], for which the IC50 stood at 7910 nM.

`O=C(O[C@@H]1Cc2c(O)cc(O)c([C@@H]3c4c(O)cc(O)cc4O[C@H](c4ccc(O)c(O)c4)[C@H]3O)c2O[C@@H]1c1cc(O)c(O)c(O)c1)c1cc(O)c(O)c(O)c1` [(+)-catechin (α + 8) (−)-epigallocatechin 3-O-gallate] had an IC50 of 174 nM. This IC50 is about 45-fold lower than that of the compound before.

In turn, `Oc1cc(O)c2c(c1)O[C@H](c1cc(O)c(O)c(O)c1)[C@@H](O)[C@@H]2c1c(O)cc(O)c2c1O[C@H](c1ccc(O)c(O)c1)[C@H](O)C2` [(+)-gallocatechin (4α − 8) (−)-epicatechin] gave an IC50 of 2860 nM.

Consider `Oc1cc(O)c2c(c1)O[C@H](c1cc(O)c(O)c(O)c1)[C@@H](O)C2` [(+)-gallocatechin (7), (+)-gallocatechin, reference compound], for which the 50% inhibitory concentration (IC50) was greater than 163000 nM.

The compound `O=C(O[C@@H]1Cc2c(O)cc(O)cc2O[C@H]1c1ccc(O)c(O)c1)c1cc(O)c(O)c(O)c1` [(−)-catechin 3-O-gallate (6), (−)-catechin 3-O-gallate, reference compound] displayed an IC50 of 846 nM.

Regarding `O=C(O[C@@H]1[C@@H](c2c(O)cc(O)c3c2O[C@H](c2cc(O)c(O)c(O)c2)[C@H](OC(=O)c2cc(O)c(O)c(O)c2)C3)c2c(O)cc(O)cc2O[C@@H]1c1ccc(O)c(O)c1)c1cc(O)c(O)c(O)c1` [(−)-epicatechin 3-O-gallate (4β − 8) (−)-epigallocatechin 3-O-gallate], the midpoint of inhibition, the IC50, lay at 846 nM.

In turn, `Oc1cc(O)c2c(c1)O[C@H](c1ccc(O)c(O)c1)[C@H](O)C2` [(−)-epicatechin (1), (−)-epicatechin, reference compound] displayed an IC50 greater than 21600 nM.

Turning to `O=C(O[C@@H]1Cc2c(O)cc(O)c([C@H]3c4c(O)cc(O)cc4O[C@H](c4ccc(O)c(O)c4)[C@@H]3O)c2O[C@@H]1c1cc(O)c(O)c(O)c1)c1cc(O)c(O)c(O)c1` [(−)-epicatechin (4β − 8) (−)-epigallocatechin 3-O-gallate], the IC50 turned out to be 147 nM. This counts as sub-micromolar.

`O=C(O[C@@H]1[C@@H](c2c(O)cc(O)c3c2O[C@H](c2ccc(O)c(O)c2)[C@H](OC(=O)c2cc(O)c(O)c(O)c2)C3)c2c(O)cc(O)cc2O[C@@H]1c1cc(O)c(O)c(O)c1)c1cc(O)c(O)c(O)c1` [(−)-epigallocatechin 3-O-gallate (4β − 8) (−)-epicatechin 3-O-gallate] gave an IC50 of 612 nM.

For the compound `Oc1cc(O)c2c(c1)O[C@H](c1cc(O)c(O)c(O)c1)[C@H](O)C2` [(−)-epigallocatechin (3), (−)-epigallocatechin, reference compound], the 50% inhibitory concentration (IC50) was greater than 20400 nM.

Compound `O=C(O[C@@H]1Cc2c(O)cc(O)c([C@H]3c4c(O)cc(O)cc4O[C@H](c4cc(O)c(O)c(O)c4)[C@@H]3O)c2O[C@@H]1c1ccc(O)c(O)c1)c1cc(O)c(O)c(O)c1` [(−)-epigallocatechin (4β − 8) (−)-epicatechin 3-O-gallate] displayed an IC50 of 913 nM.

Take `O=C(O[C@@H]1Cc2c(O)cc(O)cc2O[C@H]1c1cc(O)c(O)c(O)c1)c1cc(O)c(O)c(O)c1` [(−)-gallocatechin 3-O-gallate (8), (−)-gallocatechin 3-O-gallate, reference compound]: the IC50 was 349 nM.

Take `Oc1cc(O)c2c(c1)O[C@H](c1ccc(O)c(O)c1)[C@H](O)[C@H]2c1c(O)cc(O)c2c1O[C@H](c1ccc(O)c(O)c1)[C@H](O)C2` [procyanidin B-2 (9), procyanidin B-2]: the half-inhibitory concentration (IC50) turned out to be 7960 nM. This IC50 lies about 23-fold higher than the previous one.

`Oc1cc(O)c2c(c1)O[C@H](c1ccc(O)c(O)c1)[C@@H](O)[C@@H]2c1c(O)cc(O)c2c1O[C@H](c1ccc(O)c(O)c1)[C@@H](O)C2` [procyanidin B-3 (10), procyanidin B-3] showed an IC50 of 2940 nM.

`O=C(O[C@@H]1Cc2c(O)cc3c(c2O[C@@H]1c1cc(O)c(O)c(O)c1)[C@H]1c2c(O)cc(O)cc2O[C@@](c2cc(O)c(O)c(O)c2)(O3)[C@@H]1O)c1cc(O)c(O)c(O)c1` [prodelphinidin A-2 3′-O-gallate (11), prodelphinidin A-2 3′-O-gallate] came in with an IC50 of 171 nM.

With `O=C(O[C@@H]1[C@@H](c2c(O)cc(O)c3c2O[C@H](c2cc(O)c(O)c(O)c2)[C@H](OC(=O)c2cc(O)c(O)c(O)c2)C3)c2c(O)cc(O)cc2O[C@@H]1c1cc(O)c(O)c(O)c1)c1cc(O)c(O)c(O)c1` [prodelphinidin B-2 3,3′-di-O-gallate], it took 107 nM to reach half-maximal inhibition (IC50).

For `O=C(OC1Cc2c(O)cc(O)c(C3c4c(O)cc(O)cc4OC(c4cc(O)c(O)c(O)c4)C3O)c2OC1c1cc(O)c(O)c(O)c1)c1cc(O)c(O)c(O)c1` (stereo not drawn) [prodelphinidin B-2 3′-O-gallate (13), prodelphinidin B-2 3′-O-gallate], the IC50 stood at 1970 nM.

`Oc1cc(O)c2c(c1)O[C@H](c1cc(O)c(O)c(O)c1)[C@H](O)[C@H]2c1c(O)cc(O)c2c1O[C@H](c1cc(O)c(O)c(O)c1)[C@H](O)C2` [prodelphinidin B-2 (12), prodelphinidin B-2] gave an IC50 of 2950 nM.

Compound `O=C(O[C@@H]1Cc2c(O)cc(O)c([C@@H]3c4c(O)cc(O)cc4O[C@H](c4cc(O)c(O)c(O)c4)[C@H]3O)c2O[C@@H]1c1cc(O)c(O)c(O)c1)c1cc(O)c(O)c(O)c1` [prodelphinidin B-4 3′-O-gallate (16), prodelphinidin B-4 3′-O-gallate] gave a half-maximal inhibitory concentration (IC50) of 223 nM.

`Oc1cc(O)c2c(c1)O[C@H](c1cc(O)c(O)c(O)c1)[C@@H](O)[C@@H]2c1c(O)cc(O)c2c1O[C@H](c1cc(O)c(O)c(O)c1)[C@H](O)C2` [prodelphinidin B-4 (15), prodelphinidin B-4]: the IC50 was 6230 nM.

In turn, “(−)-epicatechin 3-O-gallate [(−)-epicatechin 3-O-gallate (2), reference compound]” yielded an IC50 of 271 nM.

Take “(−)-epigallocatechin 3-O-gallate [(−)-epigallocatechin 3-O-gallate (4), reference compound]”: half-maximal inhibition (IC50) required 284 nM.

The compound prodelphinidin B-5 3,3′-di-O-gallate displayed an IC50 of 558 nM.

System in another data set: not given
Assay: not given
The conditions noted are these: reported in the literature; cited from earlier work.
For `OC1(c2ccc(Cl)cc2)c2ccccc2C2=NCCN21` (stereo not drawn) [Mazindol], the adverse side effects entry is “dry mouth, constipation, stomach discomfort and nausea/vomiting”.

With `CCCCCCCCCCC[C@@H](C[C@@H]1OC(=O)[C@H]1CCCCCC)OC(=O)[C@H](CC(C)C)NC=O` [Xenical], the adverse side effects entry was “fatty stools, increased stool frequency, loose stools, diarrhea and abdominal pain”.
